“And” between values parts separate entries of the source, which are not always exact repeats. Equal values may be shown once. HELM strings list units from the 5' end as sugar, base in round brackets, then linkage (d deoxyribose, r ribose, m 2'-O-methyl, p phosphodiester). Strings are as the collection lists them, not checked against the first reports. ss, as = sense and antisense strand; [lna] = locked nucleic acid (LNA); [una] = unlocked nucleic acid; [s4r] = 4'-thioribose; [fl2r] = 2'-fluoro
Further: test system not given here.

The conditions of the series: siRNA.
In the case of “RNA1{r(C)p.r(G)p.r(U)p.r(A)p.r(C)p.r(G)p.r(C)p.r(G)p.r(G)p.r(A)p.r(A)p.r(U)p.r(A)p.r(C)p.r(U)p.r(U)p.r(C)p.r(G)p.r(A)p.r(T)p.r(T)}|RNA2{[s4r](U)p.[s4r](C)p.[s4r](G)p.[s4r](A)p.[s4r](A)p.[s4r](G)p.[s4r](U)p.[s4r](A)p.[s4r](U)p.[s4r](U)p.[s4r](C)p.[s4r](C)p.[s4r](G)p.[s4r](C)p.[s4r](G)p.[s4r](U)p.[s4r](A)p.[s4r](C)p.[s4r](G)p.r(T)p.r(T)}$$$RNA1{StrandType:ss}|RNA2{StrandType:as}$”, the target mRNA knockdown amounted to 16.6%.

As for “RNA1{r(C)p.r(C)p.r(G)p.r(C)p.r(C)p.r(C)p.r(G)p.r(G)p.r(C)p.r(G)p.r(G)p.r(C)p.r(G)p.r(C)p.r(C)p.r(U)p.r(U)p.r(U)p.m(A)p.r(T)p.r(T)}|RNA2{m(U)p.m(A)p.r(A)p.r(A)p.r(G)p.r(G)p.r(C)p.r(G)p.r(C)p.r(C)p.r(G)p.r(C)p.r(C)p.r(G)p.r(G)p.r(G)p.r(C)p.r(G)p.r(G)p.r(T)p.r(T)}$$$RNA1{StrandType:ss}|RNA2{StrandType:as}$”, the target mRNA knockdown came out at 82%.

For the substance “RNA1{r(A)p.r(A)p.r(G)p.r(U)p.[fl2r](A)p.r(G)p.r(U)p.r(C)p.r(C)p.r(C)p.r(C)p.r(C)p.r(U)p.r(U)p.r(G)p.r(A)p.r(A)p.r(G)p.r(A)p.r(T)p.r(T)}|RNA2{r(U)p.r(C)p.r(U)p.r(U)p.r(C)p.r(A)p.r(A)p.r(G)p.r(G)p.r(G)p.r(G)p.r(G)p.r(A)p.r(C)p.[fl2r](U)p.r(A)p.r(C)p.r(U)p.r(U)p.r(T)p.r(T)}$$$RNA1{StrandType:ss}|RNA2{StrandType:as}$”, the target mRNA knockdown was determined as 69%.

Substance “RNA1{m(A)p.r(A)p.m(C)p.r(A)p.m(G)p.r(C)p.m(C)p.r(U)p.m(U)p.r(A)p.m(C)p.r(C)p.m(C)p.r(C)p.m(G)p.r(A)p.m(U)p.r(U)p.m(C)p.r(T)p.r(T)}|RNA2{r(G)p.m(A)p.m(A)p.r(U)p.r(C)p.r(G)p.r(G)p.r(G)p.r(G)p.r(U)p.m(A)p.m(A)p.r(G)p.r(G)p.r(C)p.r(U)p.r(G)p.r(U)p.r(U)p.r(T)p.r(T)}$$$RNA1{StrandType:ss}|RNA2{StrandType:as}$” returned a target mRNA knockdown of 32%.

In turn, “RNA1{m(G)p.r(A)p.m(A)p.r(U)p.m(A)p.r(A)p.m(C)p.r(C)p.m(U)p.r(G)p.m(A)p.r(A)p.m(C)p.r(G)p.m(U)p.r(C)p.m(A)p.r(C)p.m(C)p.r(T)p.r(T)}|RNA2{r(G)p.r(G)p.r(U)p.r(G)p.m(A)p.r(C)p.r(G)p.r(U)p.r(U)p.r(C)p.m(A)p.r(G)p.r(G)p.r(U)p.r(U)p.m(A)p.r(U)p.r(U)p.r(C)p.r(T)p.r(T)}$$$RNA1{StrandType:ss}|RNA2{StrandType:as}$” registered a target mRNA knockdown of 21%.

Turning to “RNA1{r(G)p.r(G)p.r(G)p.r(A)p.r(A)p.r(A)p.[fl2r](C)p.[fl2r](U)p.r(G)p.r(A)p.r(A)p.r(A)p.r(G)p.r(G)p.[fl2r](C)p.[fl2r](U)p.r(A)p.[fl2r](U)p.r(G)p.r(T)p.r(T)}|RNA2{r(C)p.r(A)p.r(U)p.r(A)p.r(G)p.r(C)p.r(C)p.r(U)p.r(U)p.r(U)p.r(C)p.r(A)p.r(G)p.r(U)p.r(U)p.r(U)p.r(C)p.r(C)p.r(C)p.r(T)p.r(T)}$$$RNA1{StrandType:ss}|RNA2{StrandType:as}$”, the target mRNA knockdown was found to be 51%.

“RNA1{r(A)p.r(G)p.r(A)p.r(A)p.r(A)p.r(C)p.r(G)p.m(C)p.r(A)p.r(G)p.m(U)p.m(A)p.r(A)p.r(U)p.r(C)p.r(C)p.r(G)p.r(G)p.r(A)p.r(T)p.r(T)}|RNA2{r(U)p.r(C)p.r(C)p.r(G)p.r(G)p.r(A)p.r(U)p.m(U)p.r(A)p.r(C)p.m(U)p.r(G)p.r(C)p.r(G)p.r(U)p.r(U)p.r(U)p.r(C)p.r(U)p.r(T)p.r(T)}$$$RNA1{StrandType:ss}|RNA2{StrandType:as}$” came in with a target mRNA knockdown of 78%.

“RNA1{r(C)p.r(U)p.r(U)p.r(A)p.r(C)p.r(G)p.r(C)p.r(U)p.r(C)p.r(U)p.r(G)p.r(U)p.r(A)p.r(C)p.r(U)p.r(U)p.r(C)p.r(G)p.r(A)p.d(T)p.d(T)}|RNA2{r(U)p.r(C)p.r(G)p.r(A)p.r(A)p.r(G)p.r(U)p.r(A)p.r(C)p.r(U)p.r(C)p.r(A)p.r(G)p.r(C)p.r(G)p.r(U)p.r(A)p.r(A)p.r(G)p.d(T)p.d(T)}$$$RNA1{StrandType:ss}|RNA2{StrandType:as}$”: the target mRNA knockdown was 92% and 94%.

For the substance “RNA1{m(G)p.r(A)p.m(U)p.r(U)p.m(C)p.r(C)p.m(A)p.r(A)p.m(A)p.r(C)p.m(C)p.r(C)p.m(C)p.r(A)p.m(C)p.r(U)p.m(A)p.r(U)p.m(C)p.r(T)p.r(T)}|RNA2{r(G)p.r(A)p.r(U)p.r(A)p.r(G)p.r(U)p.r(G)p.r(G)p.r(G)p.r(G)p.r(U)p.r(U)p.r(U)p.r(G)p.r(G)p.r(A)p.r(A)p.r(U)p.r(C)p.r(T)p.r(T)}$$$RNA1{StrandType:ss}|RNA2{StrandType:as}$”, the target mRNA knockdown stood at 54%.

On to “RNA1{r(U)p.r(G)p.r(A)p.r(G)p.r(A)p.r(G)p.r(A)p.r(A)p.r(A)p.r(G)p.r(C)p.r(A)p.r(C)p.r(A)p.r(G)p.r(A)p.r(A)p.r(A)p.r(A)p.r(T)p.r(T)}|RNA2{[lna](T)p.r(U)p.r(U)p.r(U)p.r(C)p.r(U)p.r(G)p.r(U)p.r(G)p.r(C)p.r(U)p.r(U)p.r(U)p.r(C)p.r(U)p.r(C)p.r(U)p.r(C)p.r(A)p.[lna](T)p.[lna](T)}$$$RNA1{StrandType:ss}|RNA2{StrandType:as}$”, for which the target mRNA knockdown amounted to 45%.

Substance “RNA1{m(A)p.r(G)p.m(G)p.r(A)p.m(C)p.r(G)p.m(G)p.r(U)p.m(A)p.r(C)p.m(U)p.r(U)p.m(U)p.r(C)p.m(G)p.r(A)p.m(A)p.r(A)p.m(G)p.r(T)p.r(T)}|RNA2{r(C)p.m(U)p.m(U)p.m(U)p.r(C)p.r(G)p.r(A)p.r(A)p.r(A)p.r(G)p.m(U)p.r(A)p.r(C)p.r(C)p.r(G)p.m(U)p.r(C)p.r(C)p.m(U)p.r(T)p.r(T)}$$$RNA1{StrandType:ss}|RNA2{StrandType:as}$” yielded a target mRNA knockdown of 17%.

The substance “RNA1{r(G)p.r(U)p.r(A)p.r(U)p.r(G)p.r(A)p.r(C)p.r(C)p.r(G)p.r(A)p.r(C)p.r(U)p.r(A)p.r(C)p.r(G)p.r(C)p.r(G)p.r(U)p.r(A)p.r(T)p.r(T)}|RNA2{r(U)p.r(U)p.r(C)p.r(A)p.r(G)p.r(U)p.r(G)p.r(U)p.[una](G)p.r(A)p.r(U)p.r(G)p.r(A)p.r(C)p.r(A)p.r(C)p.r(U)p.r(U)p.r(G)p.r(T)p.r(T)}$$$RNA1{StrandType:ss}|RNA2{StrandType:as}$” had a target mRNA knockdown of 89%.

The substance “RNA1{r(G)p.r(C)p.[fl2r](U)p.r(G)p.[fl2r](U)p.r(A)p.r(A)p.r(C)p.r(C)p.r(U)p.r(C)p.r(G)p.r(G)p.r(A)p.r(G)p.r(A)p.r(G)p.r(U)p.r(U)p.r(T)p.r(T)}|RNA2{r(A)p.r(A)p.r(C)p.r(U)p.r(C)p.r(U)p.r(C)p.r(C)p.r(G)p.r(A)p.r(G)p.r(G)p.r(U)p.[fl2r](U)p.r(A)p.[fl2r](C)p.r(A)p.r(G)p.r(C)p.r(T)p.r(T)}$$$RNA1{StrandType:ss}|RNA2{StrandType:as}$” returned a target mRNA knockdown of 62%.

With “RNA1{r(G)p.r(U)p.r(A)p.r(U)p.r(G)p.r(A)p.r(C)p.r(C)p.r(G)p.r(A)p.r(C)p.r(U)p.r(A)p.r(C)p.r(G)p.r(C)p.r(G)p.r(U)p.r(A)p.r(T)p.r(T)}|RNA2{r(U)p.r(U)p.r(C)p.r(A)p.r(G)p.r(U)p.r(G)p.r(U)p.r(G)p.r(A)p.r(U)p.r(G)p.r(A)p.[una](C)p.r(A)p.r(C)p.r(U)p.r(U)p.r(G)p.r(T)p.r(T)}$$$RNA1{StrandType:ss}|RNA2{StrandType:as}$”, the target mRNA knockdown turned out to be 64%.

Substance “RNA1{r(C)p.r(U)p.r(C)p.m(C)p.r(C)p.m(C)p.r(A)p.r(G)p.r(U)p.m(C)p.r(U)p.r(C)p.r(U)p.r(C)p.r(U)p.m(U)p.r(A)p.r(A)p.r(A)p.r(T)p.r(T)}|RNA2{r(U)p.r(U)p.m(U)p.r(A)p.r(A)p.r(G)p.r(A)p.r(G)p.r(A)p.r(G)p.r(A)p.r(C)p.m(U)p.r(G)p.r(G)p.r(G)p.r(G)p.r(A)p.r(G)p.r(T)p.r(T)}$$$RNA1{StrandType:ss}|RNA2{StrandType:as}$” returned a target mRNA knockdown of 68%.

“RNA1{r(C)p.r(G)p.r(U)p.r(A)p.r(C)p.r(G)p.r(C)p.r(G)p.r(G)p.r(A)p.r(A)p.r(U)p.r(A)p.r(C)p.r(U)p.r(U)p.r(C)p.r(G)p.r(A)p.r(T)p.r(T)}|RNA2{[s4r](U)p.[s4r](C)p.[s4r](G)p.[s4r](A)p.[s4r](A)p.[s4r](G)p.r(U)p.r(A)p.r(U)p.r(U)p.r(C)p.r(C)p.r(G)p.r(C)p.r(G)p.r(U)p.r(A)p.r(C)p.r(G)p.r(T)p.r(T)}$$$RNA1{StrandType:ss}|RNA2{StrandType:as}$” yielded a target mRNA knockdown of 70.9%.

In turn, “RNA1{r(C)p.r(G)p.r(U)p.r(A)p.r(C)p.r(G)p.r(C)p.r(G)p.r(G)p.r(A)p.r(A)p.r(U)p.r(A)p.r(C)p.r(U)p.r(U)p.r(C)p.r(G)p.r(A)p.r(T)p.r(T)}|RNA2{r(U)p.r(C)p.r(G)p.r(A)p.r(A)p.r(G)p.r(U)p.r(A)p.r(U)p.r(U)p.r(C)p.r(C)p.r(G)p.[s4r](C)p.[s4r](G)p.[s4r](U)p.[s4r](A)p.[s4r](C)p.[s4r](G)p.r(T)p.r(T)}$$$RNA1{StrandType:ss}|RNA2{StrandType:as}$” came in with a target mRNA knockdown of 72.2%.

For the substance “RNA1{r(A)p.r(G)p.r(A)p.r(G)p.r(A)p.r(A)p.r(G)p.r(G)p.r(G)p.r(C)p.r(G)p.r(U)p.r(C)p.r(U)p.r(C)p.r(U)p.[fl2r](A)p.r(C)p.r(A)p.r(T)p.r(T)}|RNA2{r(U)p.r(G)p.[fl2r](U)p.r(A)p.r(G)p.r(A)p.r(G)p.r(A)p.r(C)p.r(G)p.r(C)p.r(C)p.r(C)p.r(U)p.r(U)p.r(C)p.r(U)p.r(C)p.r(U)p.r(T)p.r(T)}$$$RNA1{StrandType:ss}|RNA2{StrandType:as}$”, the target mRNA knockdown was determined as 69%.

In the case of “RNA1{r(A)p.r(G)p.r(C)p.r(U)p.r(C)p.r(U)p.r(U)p.r(U)p.r(G)p.r(U)p.r(C)p.m(A)p.r(C)p.r(C)p.r(U)p.r(C)p.r(U)p.r(C)p.r(U)p.r(T)p.r(T)}|RNA2{r(A)p.r(G)p.r(A)p.r(G)p.r(A)p.r(G)p.r(G)p.r(U)p.r(G)p.r(A)p.m(C)p.m(A)p.r(A)p.r(A)p.r(G)p.r(A)p.r(G)p.r(C)p.r(U)p.r(T)p.r(T)}$$$RNA1{StrandType:ss}|RNA2{StrandType:as}$”, the target mRNA knockdown came to 37%.

As for “RNA1{r(G)p.m(U)p.r(A)p.r(U)p.r(C)p.r(C)p.r(G)p.r(A)p.r(A)p.m(G)p.m(A)p.r(C)p.r(G)p.r(A)p.r(A)p.r(G)p.r(C)p.m(U)p.r(A)p.r(T)p.r(T)}|RNA2{m(U)p.r(A)p.r(G)p.r(C)p.r(U)p.r(U)p.r(C)p.r(G)p.r(U)p.r(C)p.r(U)p.r(U)p.r(C)p.r(G)p.r(G)p.r(A)p.m(U)p.r(A)p.r(C)p.r(T)p.r(T)}$$$RNA1{StrandType:ss}|RNA2{StrandType:as}$”, the target mRNA knockdown was 92%.

The values above are taken from the OligoGym collection.
